Measurements: patent US11365183B2, “Eicosanoid derivatives” (MAX-DELBRUECK-CENTRUM FUER MOLEKULARE MEDIZIN, priority 2009, dated 2022)
“Also recorded” adds a separate entry of the source.

Experiments:
[1] = test system: neonatal rat cardiomyocytes (NRCMs); experiment: Chronotropic effect on spontaneous beating rate of cultured neonatal rat cardiomyocytes (identification of agonists); format: cell-based; conditions: for agonistic / chronotropic effect on NRCMs, in words: compound alone; for agonistic / chronotropic effect on NRCMs, in words / chronotropic effect (Δ beats/min), mean±SE: 30 nM, incubation time 5 min; for chronotropic effect (Δ beats/min), mean±SE: NRCM clusters
Source text: This negative chronotropic effect reflects the capacity of the analogs to interact with and to activate a G-protein coupled receptor or other primary cellular targets that reduce the contractility of cardiomyocytes under basal and stress-induced conditions.
The compounds included EPA and 17,18-EETeTr (compounds 01 and 02; purchased from Cayman Chemical) as well as all but one (compound 16) of the analogs synthesized as described in examples 1-24. The R,S— and S,R-enantiomers of 17,18-EETeTr (compounds 03 and 04) were prepared resolving the racemic mixture (compound 02) by means of chiral-phase HPLC as described previously (Barbosa-Sicard E, Markovic M, Honeck H, Christ B, Muller D N, Schunck W H. Biochem Biophys Res Commun. 2005 Apr. 22; 329(4):1275-81). Before use, the compounds to be tested were prepared as 1000-fold stock solutions in ethanol.
Isolation and cultivation of NRCMs were performed as described previously (Wallukat, G; Wollenberger, A. Biomed Biochim Acta. 1987; 78:634-639; Wallukat G, Homuth V, Fischer T, Lindschau C, Horstkamp B, Jupner A, Baur E, Nissen E, Vetter K, Neichel D, Dudenhausen J W, Haller H, Luft F C. J Clin Invest. 1999; 103: 945-952). Briefly, neonatal Wistar rats (1-2 days old) were killed in conformity to the recommendations of the Community of Health Service of the City of Berlin and the cardiomyocytes were dissociated from the minced ventricles with a 0.2% solution of crude trypsin. The isolated cells were then cultured as monolayers on the bottom (12.5 cm^2) of Falcon flasks in 2.5 ml of Halle S M 20-I medium equilibrated with humidified air. The medium contained 10% heat-inactivated FCS and 2 μmol/l fluoro-deoxyuridine (Serva, Heidelberg, Germany), the latter to prevent proliferation of non-muscle cells. The NRCMs (2.4×10^6 cells/flask) were cultured at 37° C. in an incubator. After 5 to 7 days, the NRCMs formed spontaneously beating cell clusters. […] On the day of the experiment, the culture medium was replaced by 2.0 ml fresh serum-containing medium. Two hours later, the beating rates were monitored at 37° C. using an inverted microscope equipped with a heating stage. To determine the basal rate, 6 to 8 individual clusters were selected and the number of contractions was counted for 15 sec. After that, the compound to be tested was added to the culture and the beating rate of the same clusters was monitored 5 min later again. Based on the difference between the basal and compound-induced beating rate of the individual clusters, the chronotropic effects (Δ beats/min) were calculated and are given as mean±SE values. N refers to the number of clusters monitored which originated, in general, from at least three independent NRCM cultures.
This effect was fully expressed using an EPA concentration of 3.3 μM and an incubation time of 30 min. In contrast, 17,18-EETeTr (C02) produced the same effect almost immediately and already in the low nanomolar range (EC50 of 1-2 nM, data not shown). To compare the activity of 17,18-EETeTr with that of its synthetic analogs, all these compounds were tested at a final concentration of 30 nM and using an incubation time of 5 min.

[2] = test system: neonatal rat cardiomyocytes (NRCMs); experiment: Antagonism of the negative chronotropic effect of agonists in NRCMs (identification of antagonists); format: cell-based; conditions: for inhibition of the agonistic effect of compound C4: 5 min preincubation, C4 and potential antagonist each 30 nM
Experimental: These antagonists were selected based on their capacity to abolish the negative chronotropic effects of EPA, 17,18-EETeTr and their synthetic agonists on the contractility of neonatal rat cardiomyocytes.
Potential antagonists included compounds C1, C3, C5, C6, C7, and C8, which were synthesized as described above in the corresponding examples.
The bioassay was performed with NRCMs as described in example 25. In the first series of experiments, compound C4 was used as the agonist and its effect was determined after preincubating the cultured NRCMc for 5 min with one of the potential antagonists. Both C4 and the potential antagonist were used at a final concentration of 30 nM.

[3] = test system: neonatal rat cardiomyocytes (NRCMs); experiment: NRCM bioassay with pharmacological inhibitors (mechanism of cellular action); format: cell-based; conditions: for inhibition of the negative chronotropic effects of EPA, 17,18-EETeTr and C13: 5 min preincubation, 11,12-EET 30 nM, C3, AH6089 10 μM, EPA 3.3 μM, 17,18-EETeTr 30 nM, C13 30 nM; for inhibition of the negative chronotropic effects of EPA, 17,18-EETeTr and C13 / blocking of the positive chronotropic effect of butaprost: calphostin C 100 nM, H89 1 μM; for blocking of the positive chronotropic effect of butaprost: butaprost 100 nM, AH6089 10 μM
Experimental: The bioassay with NRCMs was performed as described in examples 25 and 26. […] The cultured NRCMs were preincubated without or with one of the compounds indicated in FIG. 4 for 5 min before the effect of the following agonists was determined: EPA (3.3 μM), 17,18-EETeTr (30 nM) or C13 (30 nM). In some experiments, the NRCMs were stimulated with a selective EP2 prostanoid receptor agonist (butaprost from Sigma-Aldrich; used at a final concentration of 100 nM) to provide a control for the effect of certain inhibitors.

[4] = test system: rat model of myocardial infarction; experiment: Anti-arrhythmic effect in rat model of myocardial infarction (LAD ligation); format: in vivo; conditions: male Wistar rats
Experimental: Study design: To gain insight into the in-vivo effects of synthetic 17,18-EETeTr-agonists, myocardial infarction studies were performed in male Wistar rats. Briefly, rats weighing 220-250 g were randomized to receive an i.v. bolus of compound C17 (100 μg in 300 μl 0.9% NaCl) or only 300 μl 0.9% NaCl as vehicle control two hours before induction of myocardial infarction. For safe bolus application, animals were mildly anesthetized using isoflorane. Two hours after bolus application, animals were re-anesthetized with a mixture of ketamine and xylazine (i.v.). Continuous monitoring of the surface-ECG was started (EPTracer, Netherlands) and maintained until the end of the study. After recording of the basal ECG, myocardial infarction was induced by ligation of the left anterior descending artery (LAD). One hour after myocardial infarction animals were sacrificed and organ harvested. Samples from urine, blood, liver, kidney and heart were stored for further analysis.
Method of arrhythmia analysis: Ventricular tachycardia burden was calculated as the sum of all arrhythmic events originating from the ventricular myocardium, which were observed within the first hour after induction of myocardial infarction. In order to quantify not only the frequency but also the severity of the ventricular arrhythmias, an arrhythmia-severity-score was calculated. This score was calculated as the sum of the number of different arrhythmia events (PVC, couplet, triplet, VT<1.5 sec, VT>=1.5 sec), each class factorized by an increasing severity index of 1-5 (e.g. PVC×1, couplets×2, . . . , VT>=1.5 sec×5).

With `CCC1OC1CCCCCCCCCCCCCCCC(=O)O` (centres unmarked) [Compound C8, 16-[(Z)-3-Ethyloxiranyl]hexadecanoic Acid] the “agonistic / chronotropic effect on NRCMs, in words” value (“agonistic / chronotropic effect” for short) [1] was “inactive when tested alone”, the “inhibition of the agonistic effect of compound C4” value (from here on “inhibition … of compound C4”) [2] was “did not inhibit” and the melting point was 62.1 to 62.5 °C.
With `CCC1OC1CCCC/C=C\CCCC/C=C\CCCC(=O)O` (centres unmarked) [Compound C2, (5Z,11Z)-16-(3-Ethyloxirane-2-yl)hexadeca-5,11-dienoic acid] the “agonistic / chronotropic effect” value [1] was “Agonists”.
For `CCCC(=O)NCCCC/C=C\CCCCCCCCCC(=O)O` [Compound C12, 16-(Butyrylamino)hexadec-11(Z)-enoic acid], the “agonistic / chronotropic effect” value [1] was “largely inactive” and the melting point was 99.2 to 99.6 °C.
For `CCC1OC1C/C=C\CCCCCCC/C=C\CCCC(=O)O` (centres unmarked) [Compound C1, (5Z,14Z)-16-(3-Ethyloxirane-2-yl)hexadeca-5,14-dienoic acid], the “agonistic / chronotropic effect” value [1] was “inactive when tested alone” and the “inhibition … of compound C4” value [2] was “did not inhibit”.
In the case of `CCNC(=O)NCCCC/C=C\CCCCCCCCCC(=O)OCCOCCOCCO` [Compound C18, 2-(2-(2-Hydroxyethoxy)ethoxy)ethyl 16-(3-ethylureido)hexadec-11 (Z)-enoate], the “agonistic / chronotropic effect” value [1] is reported as “Agonists”.
For `O=S(=O)(NCCNC/C=C/c1ccc(Br)cc1)c1cccc2cnccc12` [Compound H89], the “inhibition of the negative chronotropic effects of EPA, 17,18-EETeTr and C13” value (shortened to “inhibition … 17,18-EETeTr and C13”) [3] was “not affected” and the “blocking of the positive chronotropic effect of butaprost” value (“blocking” for short) [3] was “blocked”.
In the case of `CCC1OC1C/C=C/C/C=C/C/C=C/C/C=C/CCCC(=O)O` (centres unmarked) [17,18-EETeTr, reference compound], the “chronotropic effect (Δ beats/min), mean±SE” value [1] is reported as −22.5±0.8 beats/min, the EC50 ([1]; NRCMs, effect almost immediate, data not shown, read-out: EC50 of reduction of the beating rate) is reported as 1 to 2 nM and the “agonistic / chronotropic effect” value [1] is reported as “acted as agonist”.
In the case of `CCC1OC1CCCCCCC/C=C\CCCCCCC(=O)O` (centres unmarked) [Compound C6, 16-[(Z)-3-Ethyloxiranyl]hexadec-8(Z)-enoic Acid], the “agonistic / chronotropic effect” value [1] is reported as “inactive when tested alone” and the “inhibition … of compound C4” value [2] is reported as “did not inhibit”.
With `CCC1OC1C/C=C\CCCC/C=C\CCCCCCC(=O)O` (centres unmarked) [Compound C3, (8Z,14Z)-16-(3-Ethyloxirane-2-yl)hexadeca-8,14-dienoic Acid] the “inhibition … 17,18-EETeTr and C13” value [3] was “strongly inhibited”, the “blocking” value [3] was “not” and the “agonistic / chronotropic effect” value [1] was “did not exert any significant effect”. For the same compound, the “inhibition … of compound C4” value [2] was “significantly inhibited”, the “effect on the negative chronotropic effect of EPA” value ([2]; antagonist 30 nM, EPA 3.3 μM) was “abolished” and the “antagonistic effect against C4, EPA, 17,18-EETeTr, C2 and C13” value ([2]; antagonist 30 nM, EPA 3.3 μM, other agonists 30 nM each) was “highly potent antagonist”. For the same compound, the “effect on the negative chronotropic effect of C13” value ([2]; both analogs in equimolar concentrations (30 nM)) was “almost completely blocked”.
For `CCNC(=O)NCCCC/C=C\CCCCCCCCCC(=O)NCC(=O)[O-].[Na+]` [Compound C17, Sodium (Z)-2-(16-(3-Ethylureido)hexadec-11-enamido)acetate], the “agonistic / chronotropic effect” value [1] was “Agonists”, the “side effects of bolus injection” value ([4]; i.v. bolus 100 μg) was “did not induce any obvious negative side effects” and the ventricular tachycardia burden ([4]; i.v. bolus 100 μg two hours before LAD ligation, first hour after infarction, n=5) was 7526.2±5664.3 ms/h. The arrhythmia severity score ([4]; i.v. bolus 100 μg two hours before LAD ligation, n=5) was 125±25 arbitrary units.
With `CCC1OC1CCCC/C=C\CCCCCCCCCC(=O)O` (centres unmarked) [Compound C4, 16-[(Z)-3-Ethyloxiranyl]hexadec-11(Z)-enoic Acid] the “chronotropic effect (Δ beats/min), mean±SE” value [1] was −18.3±1.5 beats/min and the “agonistic / chronotropic effect” value [1] was “Agonists; also recorded: agonistic effects”.
For `CNC(=O)C(=O)NCCCC/C=C\CCCCCCCCCC(=O)O` [Compound C13, 16-(2-(methylamino)-2-oxoacetamido)hexadac-11(Z)-enoic acid], the “chronotropic effect (Δ beats/min), mean±SE” value [1] was −33.7±1.3 beats/min and the “agonistic / chronotropic effect” value [1] was “Agonists”.
For `CCC1OC1CCCCCCCCCC/C=C\CCCC(=O)O` (centres unmarked) [Compound C7, 16-[(Z)-3-Ethyloxiranyl]hexadec-5(Z)-enoic Acid], the “agonistic / chronotropic effect” value [1] was “inactive when tested alone” and the “inhibition … of compound C4” value [2] was “did not inhibit”.
For `CCCC1([C@H](O)C/C=C/[C@H]2[C@H](O)CC(=O)[C@@H]2CCCCCCC(=O)OC)CCC1` [butaprost], the “chronotropic effect on NRCMs” value ([3]; 100 nM) was “positive chronotropic effect”.
For `CCCC(=O)NC/C=C\CCCCCCCCCCCCC(=O)O` [Compound C22, 16-Butyramidohexadec-14(Z)-enoic acid], the “agonistic / chronotropic effect” value [1] was “positive chronotropic effect” and the melting point was 72.7 to 73.1 °C.
In the case of `CCCCC/C=C\CC1OC1C/C=C\C/C=C\CCCC(=O)O` (centres unmarked) [11,12-EET, 11,12-epoxyeicosatrienoic acid], the “inhibition … 17,18-EETeTr and C13” value [3] is reported as “strongly inhibited”.
For `CC/C=C\C/C=C\C/C=C\C/C=C\C/C=C\CCCC(=O)O` [EPA, eicosapentaenoic acid, reference compound], the “concentration resulting in a progressive reduction of the beating rate” value ([1]; NRCM cultures) was “above 1 μM” and the “concentration at which the reduction of the beating rate was fully expressed” value ([1]; incubation time of 30 min) was 3.3 µM.
With calphostin C the “inhibition … 17,18-EETeTr and C13” value [3] was “strongly inhibited” and the “blocking” value [3] was “not”.
For `CCCCNC(=O)CCC/C=C\CCCCCCCCCC(=O)O` [Compound C24, 16-(Butylamino)-16-oxohexadec-11 (Z)-enoic acid], the “agonistic / chronotropic effect” value [1] was “Agonists; also recorded: maintain” and the melting point was 78.2 to 78.8 °C.
In the case of `CCC1OC1C/C=C\CCCCCCCCCCCCC(=O)O` (centres unmarked) [Compound C5, 16-[(Z)-3-Ethyloxiranyl]hexadec-14(Z)-enoic Acid], the “agonistic / chronotropic effect” value [1] is reported as “no effect; also recorded: did not exert any significant effect” and the “inhibition … of compound C4” value [2] is reported as “significantly inhibited”.
In the case of `CC(C)Oc1ccc2c(=O)c3cc(C(=O)O)ccc3oc2c1` [AH6089], the “inhibition … 17,18-EETeTr and C13” value [3] is reported as “strongly inhibited” and the “blocking” value [3] is reported as “blocked”.
